pIC50: −log10 of the molar value.
Test system: 935938-334-R-J1-PDC spheroids with HUVEC/MSC, viability
Assay: Anticancer human tumor 935938-334-R-J1-PDC patient-derived small intestine adenocarcinoma cell line growth inhibition [PI3K]
Conditions: for pIC50: curve of first compound; for viability, T/C: stronger effect = lower value
In short: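 We assembled tumor spheroids that included a stromal compartment of HUVEC and MSCs, then exposed them to targeted agents alone and together with PI3K pathway inhibitors. Concentration series descended by half-log from clinically achievable Cmax levels. Viability served as the endpoint.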

[1] = second compound 0.0316 µM, first compound 0.000316 µM
[2] = second compound 0.0316 µM, first compound 0.001 µM
[3] = second compound 0.0316 µM, first compound 0.00316 µM
[4] = second compound 0.0316 µM, first compound 0.01 µM
[5] = second compound 0.0316 µM, first compound 0.0316 µM
[6] = second compound 0.0316 µM, first compound 0.1 µM
[7] = second compound 0.1 µM, first compound 0.000316 µM
[8] = second compound 0.1 µM, first compound 0.001 µM
[9] = second compound 0.1 µM, first compound 0.00316 µM
[10] = second compound 0.1 µM, first compound 0.01 µM
[11] = second compound 0.1 µM, first compound 0.0316 µM
[12] = second compound 0.1 µM, first compound 0.1 µM
[13] = second compound 0.316 µM, first compound 0.000316 µM
[14] = second compound 0.316 µM, first compound 0.001 µM
[15] = second compound 0.316 µM, first compound 0.00316 µM
[16] = second compound 0.316 µM, first compound 0.01 µM
[17] = second compound 0.316 µM, first compound 0.0316 µM
[18] = second compound 0.316 µM, first compound 0.1 µM
[19] = second compound 1 µM, first compound 0.000316 µM
[20] = second compound 1 µM, first compound 0.001 µM
[21] = second compound 1 µM, first compound 0.00316 µM
[22] = second compound 1 µM, first compound 0.01 µM
[23] = second compound 1 µM, first compound 0.0316 µM
[24] = second compound 1 µM, first compound 0.1 µM
[25] = second compound 3.16 µM, first compound 0.000316 µM
[26] = second compound 3.16 µM, first compound 0.001 µM
[27] = second compound 3.16 µM, first compound 0.00316 µM
[28] = second compound 3.16 µM, first compound 0.01 µM
[29] = second compound 3.16 µM, first compound 0.0316 µM
[30] = second compound 3.16 µM, first compound 0.1 µM
[31] = second compound 10 µM, first compound 0.000316 µM
[32] = second compound 10 µM, first compound 0.001 µM
[33] = second compound 10 µM, first compound 0.00316 µM
[34] = second compound 10 µM, first compound 0.01 µM
[35] = second compound 10 µM, first compound 0.0316 µM
[36] = second compound 10 µM, first compound 0.1 µM
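Note: compound exposure lasted seven days before viability was read.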
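Throughout, for viability, T/C: percent of vehicle DMSO treated spheroid viability so 100% = untreated.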

Structure (SMILES): CC(=O)c1c(C)c2cnc(Nc3ccc(N4CCNCC4)cn3)nc2n(C2CCCC2)c1=O + CC(Nc1ncnc2nc[nH]c12)c1cc2cccc(Cl)c2c(=O)n1-c1ccccc1
- pIC50 (second compound 0.0316 µM): < 7.00
- pIC50 (second compound 0.1 µM): < 7.00
- pIC50 (second compound 0.316 µM): < 7.00
- pIC50 (second compound 1 µM): < 7.00
- pIC50 (second compound 3.16 µM): 7.10
- pIC50 (second compound 10 µM): 7.31
- viability, T/C [1]: 105%
- viability, T/C [2]: 108%
- viability, T/C [3]: 99%
- viability, T/C [4]: 97.2%
- viability, T/C [5]: 90%
- viability, T/C [6]: 73%
- viability, T/C [7]: 103%
- viability, T/C [8]: 103%
- viability, T/C [9]: 93%
- viability, T/C [10]: 69.5%
- viability, T/C [11]: 91.5%
- viability, T/C [12]: 74.6%
- viability, T/C [13]: 68.6%
- viability, T/C [14]: 91.2%
- viability, T/C [15]: 105%
- viability, T/C [16]: 89.7%
- viability, T/C [17]: 71.6%
- viability, T/C [18]: 64.9%
- viability, T/C [19]: 99.8%
- viability, T/C [20]: 109%
- viability, T/C [21]: 93%
- viability, T/C [22]: 88.5%
- viability, T/C [23]: 69.5%
- viability, T/C [24]: 53.4%
- viability, T/C [25]: 96.7%
- viability, T/C [26]: 111%
- viability, T/C [27]: 97.6%
- viability, T/C [28]: 86.3%
- viability, T/C [29]: 73.5%
- viability, T/C [30]: 44.1%
- viability, T/C [31]: 87.1%
- viability, T/C [32]: 83.7%
- viability, T/C [33]: 78.4%
- viability, T/C [34]: 67.1%
- viability, T/C [35]: 56.7%
- viability, T/C [36]: 40.2%

Structure (SMILES): CC(C)n1nc(-c2ccc3oc(N)nc3c2)c2c(N)ncnc21 + CC(Nc1ncnc2nc[nH]c12)c1cc2cccc(Cl)c2c(=O)n1-c1ccccc1
- pIC50 (second compound 0.0316 µM): < 7.00
- pIC50 (second compound 0.1 µM): < 7.00
- pIC50 (second compound 0.316 µM): < 7.00
- pIC50 (second compound 1 µM): < 7.00
- pIC50 (second compound 3.16 µM): < 7.00
- pIC50 (second compound 10 µM): 7.15
- viability, T/C [1]: 120%
- viability, T/C [2]: 104%
- viability, T/C [3]: 99.8%
- viability, T/C [4]: 99.1%
- viability, T/C [5]: 78.6%
- viability, T/C [6]: 62.9%
- viability, T/C [7]: 97.3%
- viability, T/C [8]: 85.9%
- viability, T/C [9]: 84.5%
- viability, T/C [10]: 91.3%
- viability, T/C [11]: 88.3%
- viability, T/C [12]: 62%
- viability, T/C [13]: 78.2%
- viability, T/C [14]: 85.6%
- viability, T/C [15]: 83.2%
- viability, T/C [16]: 96.2%
- viability, T/C [17]: 72.1%
- viability, T/C [18]: 57.9%
- viability, T/C [19]: 111%
- viability, T/C [20]: 91.7%
- viability, T/C [21]: 81.5%
- viability, T/C [22]: 84%
- viability, T/C [23]: 82.4%
- viability, T/C [24]: 47.6%
- viability, T/C [25]: 87.5%
- viability, T/C [26]: 74%
- viability, T/C [27]: 76.7%
- viability, T/C [28]: 70.4%
- viability, T/C [29]: 57.6%
- viability, T/C [30]: 51.2%
- viability, T/C [31]: 72.7%
- viability, T/C [32]: 94.1%
- viability, T/C [33]: 61.5%
- viability, T/C [34]: 71.5%
- viability, T/C [35]: 68.5%
- viability, T/C [36]: 43%

Structure (SMILES): CCCS(=O)(=O)Nc1ccc(F)c(C(=O)c2c[nH]c3ncc(-c4ccc(Cl)cc4)cc23)c1F + CC(Nc1ncnc2nc[nH]c12)c1cc2cccc(Cl)c2c(=O)n1-c1ccccc1
- pIC50 (second compound 0.0316 µM): 5.17
- pIC50 (second compound 0.1 µM): 5.17
- pIC50 (second compound 0.316 µM): 5.16
- pIC50 (second compound 1 µM): 5.17
- pIC50 (second compound 3.16 µM): 5.20
- pIC50 (second compound 10 µM): 5.25
- viability, T/C [5]: 107%
- viability, T/C [6]: 100%
- viability, T/C (second compound 0.0316 µM, first compound 0.316 µM): 140%
- viability, T/C (second compound 0.0316 µM, first compound 1 µM): 102%
- viability, T/C (second compound 0.0316 µM, first compound 3.16 µM): 95.2%
- viability, T/C (second compound 0.0316 µM, first compound 10 µM): 26.3%
- viability, T/C [11]: 88.2%
- viability, T/C [12]: 98.7%
- viability, T/C (second compound 0.1 µM, first compound 0.316 µM): 95.9%
- viability, T/C (second compound 0.1 µM, first compound 1 µM): 94%
- viability, T/C (second compound 0.1 µM, first compound 3.16 µM): 108%
- viability, T/C (second compound 0.1 µM, first compound 10 µM): 26.5%
- viability, T/C [17]: 99.8%
- viability, T/C [18]: 94%
- viability, T/C (second compound 0.316 µM, first compound 0.316 µM): 111%
- viability, T/C (second compound 0.316 µM, first compound 1 µM): 110%
- viability, T/C (second compound 0.316 µM, first compound 3.16 µM): 96.3%
- viability, T/C (second compound 0.316 µM, first compound 10 µM): 27%
- viability, T/C [23]: 97%
- viability, T/C [24]: 105%
- viability, T/C (second compound 1 µM, first compound 0.316 µM): 109%
- viability, T/C (second compound 1 µM, first compound 1 µM): 118%
- viability, T/C (second compound 1 µM, first compound 3.16 µM): 91.6%
- viability, T/C (second compound 1 µM, first compound 10 µM): 28.5%
- viability, T/C [29]: 109%
- viability, T/C [30]: 91.6%
- viability, T/C (second compound 3.16 µM, first compound 0.316 µM): 99.9%
- viability, T/C (second compound 3.16 µM, first compound 1 µM): 117%
- viability, T/C (second compound 3.16 µM, first compound 3.16 µM): 84.3%
- viability, T/C (second compound 3.16 µM, first compound 10 µM): 28%
- viability, T/C [35]: 91.2%
- viability, T/C [36]: 86.5%
- viability, T/C (second compound 10 µM, first compound 0.316 µM): 91.6%
- viability, T/C (second compound 10 µM, first compound 1 µM): 97%
- viability, T/C (second compound 10 µM, first compound 3.16 µM): 78.1%
- viability, T/C (second compound 10 µM, first compound 10 µM): 21.9%

— PubChem BioAssay AID1963966 (Molecular Pharmacology Branch, DTP, NCI, 2024)
